The values below come from US20250388553A1 (Incyte Corporation, priority 2018, published 2025).

Counter-ions that a name gives are not always drawn. Like-named read-outs stand apart in the source and are kept apart here. Where only a bound is given, the exact number is not on record here.

Assay [1] addresses PI3Kγ (p110γ) Recombinant Human Protein (Homo sapiens (Human), UniProt P48736). Kind of assay: PI3K-γ scintillation proximity assay. It counts as biochemical.
The target in assay [2] is PI3Kδ (p1106/p85a) Recombinant Human Protein (Homo sapiens (Human), UniProt O00329). Kind of assay: PI3Kδ scintillation proximity assay. It counts as biochemical.
In assay [3] the test system is Phosphorylated Ribosomal Protein S6 (RPS6) in THP-1 cells. Kind of assay: THP-1 RPS6 ELISA assay. It counts as cell-based, Human. The note with it: Homo sapiens. An excerpt:
Example A. THP-1 RPS6 ELISA Assay
To measure the Phosphorylated Ribosomal Protein S6 (RPS6) in cell lysates, THP-1 cells (Human Acute Monocytic Leukemia) are purchased from ATCC (Manassas, VA) and maintained in RPMI with 10% FBS (Gibco/Life Technologies, Carlsbad, CA). For the assay, THP-1 cells are serum starved overnight in RPMI, then plated in RPMI (2×10^5 cells/well in […]) into 96-well flat-bottom tissue culture treated plates (Corning, Corning, NY), in the presence or absence of a concentration range of test compounds. Covered plates are incubated for 2 hours at 37° C., 5% CO2 then treated with or without 10 nM MCP-1(MYBioSource, San Diego, CA) for 15 minutes at 37° C., 5% CO2. Plates are centrifuged at 1600 RPM and supernatants are removed. Cells are lysed in Lysis Buffer (Cell Signaling, Danvers, MA) with Protease Inhibitor (Calbiochem/EMD, Germany), PMSF (Sigma, St Louis MO), HALTS (Thermo Fisher, Rockford, IL) for 30 min on wet ice. Cell lysates are frozen at −80° C. before testing. The lysates are tested in the Human/Mouse/Rat Phospho-RPS6 ELISA (R&D Systems, Inc. Minn, MN). The plate is measured using a microplate reader (SpectraMax M5—Molecular Devices, LLC Sunnyvale, CA) set to 450 nm with a wavelength correction of 540. IC50 determination is performed by fitting the curve of inhibitor percent inhibition versus the log of the inhibitor concentration using the GraphPad Prism 5.0 software.
The compounds of the Examples were tested in the assays described in Examples A, B and C and found to have the IC50s are shown in Tables A1, A2, A3 and A4.

Setting [4] is: Table A3, scintillation proximity assay, recombinant human p110γ.
The mark [5] stands for this setting: Table A3, scintillation proximity assay, recombinant human PI3Kδ.
Setting [6] is: Table A3, THP-1 cells, 10 nM MCP-1, phospho-RPS6 ELISA, read-out: PI3Kγ_THP1_RPS6_ELISA IC50.
Where [7] appears, read: Table A4, scintillation proximity assay, recombinant human p110γ.
[8] abbreviates: Table A4, scintillation proximity assay, recombinant human PI3Kδ.
The mark [9] stands for this setting: Table A4, THP-1 cells, 10 nM MCP-1, phospho-RPS6 ELISA, read-out: PI3Kγ_THP1_RPS6_ELISA IC50.

PI3Kγ (p110γ) Recombinant Human Protein, sequence (P48736 whole entry): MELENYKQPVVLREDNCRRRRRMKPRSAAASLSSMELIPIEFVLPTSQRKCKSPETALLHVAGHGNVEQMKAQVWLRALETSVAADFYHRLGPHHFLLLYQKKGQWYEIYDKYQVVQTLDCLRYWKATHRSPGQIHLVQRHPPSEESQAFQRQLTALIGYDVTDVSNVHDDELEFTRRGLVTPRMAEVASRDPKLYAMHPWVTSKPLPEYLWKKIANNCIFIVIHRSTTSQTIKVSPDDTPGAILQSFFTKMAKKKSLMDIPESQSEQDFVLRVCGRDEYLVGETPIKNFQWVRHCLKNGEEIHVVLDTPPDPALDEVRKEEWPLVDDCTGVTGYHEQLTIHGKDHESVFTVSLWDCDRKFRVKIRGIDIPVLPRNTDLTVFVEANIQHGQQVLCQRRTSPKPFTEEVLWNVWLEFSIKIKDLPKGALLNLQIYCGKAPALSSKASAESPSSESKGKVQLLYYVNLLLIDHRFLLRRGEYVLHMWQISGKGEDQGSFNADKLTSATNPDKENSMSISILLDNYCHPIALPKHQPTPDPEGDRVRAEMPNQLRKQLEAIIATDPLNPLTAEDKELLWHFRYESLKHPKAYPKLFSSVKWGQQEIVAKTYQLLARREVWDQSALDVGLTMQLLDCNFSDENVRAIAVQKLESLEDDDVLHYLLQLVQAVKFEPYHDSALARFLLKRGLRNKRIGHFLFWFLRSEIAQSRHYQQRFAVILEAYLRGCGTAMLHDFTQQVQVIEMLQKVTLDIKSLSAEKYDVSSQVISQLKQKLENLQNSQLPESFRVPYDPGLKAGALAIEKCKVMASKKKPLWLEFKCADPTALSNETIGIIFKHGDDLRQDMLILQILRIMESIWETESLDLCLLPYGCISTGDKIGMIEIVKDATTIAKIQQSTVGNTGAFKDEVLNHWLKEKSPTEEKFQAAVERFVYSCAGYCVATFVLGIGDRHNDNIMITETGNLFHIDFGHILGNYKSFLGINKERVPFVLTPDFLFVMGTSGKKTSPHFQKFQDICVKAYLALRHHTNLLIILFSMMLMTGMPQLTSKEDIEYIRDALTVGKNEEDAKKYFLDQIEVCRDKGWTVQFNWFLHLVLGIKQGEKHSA
PI3Kδ (p1106/p85a) Recombinant Human Protein, sequence (O00329 whole entry): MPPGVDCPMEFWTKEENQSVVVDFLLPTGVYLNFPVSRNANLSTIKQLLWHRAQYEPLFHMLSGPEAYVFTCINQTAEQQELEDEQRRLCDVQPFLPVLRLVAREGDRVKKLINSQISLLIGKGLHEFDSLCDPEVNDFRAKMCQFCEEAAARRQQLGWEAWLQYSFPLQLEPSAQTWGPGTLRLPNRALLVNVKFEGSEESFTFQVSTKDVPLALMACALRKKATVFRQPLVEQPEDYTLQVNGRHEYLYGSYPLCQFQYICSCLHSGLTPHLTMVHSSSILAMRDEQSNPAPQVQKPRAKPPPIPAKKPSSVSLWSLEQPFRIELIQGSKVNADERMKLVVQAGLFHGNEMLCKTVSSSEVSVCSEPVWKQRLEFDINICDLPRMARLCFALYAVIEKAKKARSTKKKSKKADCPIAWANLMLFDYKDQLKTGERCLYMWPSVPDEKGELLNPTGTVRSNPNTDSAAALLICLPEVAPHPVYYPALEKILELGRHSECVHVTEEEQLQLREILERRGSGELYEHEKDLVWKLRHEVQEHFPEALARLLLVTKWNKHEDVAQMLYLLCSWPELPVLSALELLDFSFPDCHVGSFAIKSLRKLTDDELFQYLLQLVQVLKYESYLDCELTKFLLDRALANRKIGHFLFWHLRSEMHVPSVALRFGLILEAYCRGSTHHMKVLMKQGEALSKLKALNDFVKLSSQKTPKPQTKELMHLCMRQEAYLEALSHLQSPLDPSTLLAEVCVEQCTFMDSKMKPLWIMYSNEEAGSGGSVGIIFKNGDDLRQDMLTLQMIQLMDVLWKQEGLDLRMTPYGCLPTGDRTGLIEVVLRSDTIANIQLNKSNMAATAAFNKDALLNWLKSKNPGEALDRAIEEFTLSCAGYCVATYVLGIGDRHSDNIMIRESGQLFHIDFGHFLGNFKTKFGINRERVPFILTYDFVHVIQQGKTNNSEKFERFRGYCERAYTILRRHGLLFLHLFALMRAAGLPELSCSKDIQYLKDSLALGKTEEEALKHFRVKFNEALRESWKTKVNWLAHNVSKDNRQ
PI3Kδ (p1106/p85a) Recombinant Human Protein, sequence (P27986 whole entry partner): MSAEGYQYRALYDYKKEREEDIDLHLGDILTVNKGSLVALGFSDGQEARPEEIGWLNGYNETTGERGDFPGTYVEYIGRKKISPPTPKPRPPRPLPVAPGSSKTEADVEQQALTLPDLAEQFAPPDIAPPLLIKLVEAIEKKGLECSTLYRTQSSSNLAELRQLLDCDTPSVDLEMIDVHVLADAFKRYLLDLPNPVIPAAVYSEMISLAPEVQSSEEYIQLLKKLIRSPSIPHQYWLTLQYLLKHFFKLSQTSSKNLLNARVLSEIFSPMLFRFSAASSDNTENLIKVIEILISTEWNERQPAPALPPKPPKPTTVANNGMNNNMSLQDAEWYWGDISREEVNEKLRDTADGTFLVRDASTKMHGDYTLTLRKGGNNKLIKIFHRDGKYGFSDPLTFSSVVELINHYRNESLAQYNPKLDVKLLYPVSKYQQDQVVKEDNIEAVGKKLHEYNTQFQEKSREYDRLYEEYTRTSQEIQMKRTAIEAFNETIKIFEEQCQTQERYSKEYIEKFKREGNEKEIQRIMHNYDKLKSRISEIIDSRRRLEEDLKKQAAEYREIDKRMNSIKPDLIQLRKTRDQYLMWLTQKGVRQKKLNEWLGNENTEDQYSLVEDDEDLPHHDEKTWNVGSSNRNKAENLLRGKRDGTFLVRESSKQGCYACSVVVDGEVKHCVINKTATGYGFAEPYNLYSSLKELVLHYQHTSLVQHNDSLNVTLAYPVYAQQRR

For the molecule `Cc1ccc(C(O)(C(N)=O)C(F)(F)F)cc1-c1cnc(N)c(-c2ccc(C3CC3)cc2)n1` (stereo not drawn) [Example 92, 2-(3-(5-amino-6-(4-cyclopropylphenyl)pyrazin-2-yl)-4-methylphenyl)-3,3,3-trifluoro-2-hydroxypropanamide trifluoroacetate], the half-inhibitory concentration (IC50) in assay [1] (setting [4]) is less than 0.1 µM; in assay [2] (setting [5]), 0.1 to 0.5 µM; in assay [3] (setting [6]), 100 to 500 nM.
In the case of `Cc1ccc(C(O)(C(N)=O)C(F)(F)F)cc1-c1cnc(N)c(-c2ccc(B(O)O)cc2)n1` (stereo not drawn) [Example 97, (4-(3-Amino-6-(5-(3-amino-1,1,1-trifluoro-2-hydroxy-3-oxopropan-2-yl)-2-methylphenyl)pyrazin-2-yl)phenyl)boronic Acid], the IC50 in assay [1] (setting [4]) was less than 0.1 µM; in assay [2] (setting [5]), less than 0.1 µM; in assay [3] (setting [6]) it was 100 to 500 nM.
For the molecule `Cc1ccc(C(O)(CNC=O)C(F)(F)F)cc1-c1cnc(N)c(-c2cn[nH]c2)n1` (stereo not drawn) [Example 103, N-(2-(3-(5-amino-6-(1H-pyrazol-4-yl)pyrazin-2-yl)-4-methylphenyl)-3,3,3-trifluoro-2-hydroxypropyl)formamide trifluoroacetate], the IC50 in assay [1] (setting [4]) is less than 0.1 µM; in assay [2] (setting [5]), 0.1 to 0.5 µM; in assay [3] (setting [6]) it was 100 to 500 nM.
As to `Cc1ccc(C(O)(C(N)=O)C(F)(F)F)cc1-c1cnc(N)c(N2CCN(C3CC3)C(=O)C2)n1` (stereo not drawn) [Example 112, 2-(3-(5-amino-6-(4-cyclopropyl-3-oxopiperazin-1-yl)pyrazin-2-yl)-4-methylphenyl)-3,3,3-trifluoro-2-hydroxypropanamide Trifluoroacetate], the results for the IC50 in assay [1] (setting [7]), in assay [2] (setting [8]) and in assay [3] (setting [9]) were less than 0.1 µM, 0.1 to 0.5 µM and 100 to 500 nM, respectively.
On to `Cc1ccc(C(O)(C(N)=O)C(F)(F)F)cc1-c1cnc(N)c(N2CCN(C(C)(C)C)C(=O)C2)n1` (stereo not drawn) [Example 113, 2-(3-(5-amino-6-(4-tert-butyl-3-oxopiperazin-1-yl)pyrazin-2-yl)-4-methylphenyl)-3,3,3-trifluoro-2-hydroxypropanamide trifluoroacetate], for which the values for the half-inhibitory concentration (IC50) in assay [1] (setting [7]), in assay [2] (setting [8]) and in assay [3] (setting [9]) were less than 0.1 µM, 0.1 to 0.5 µM and 100 to 500 nM, respectively.
Taken in the same sequence, the figures for `Cc1ccc(C(O)(C(N)=O)C(F)(F)F)cc1-c1cnc(N)c(N2CCN(c3ccccc3C)CC2)n1` (stereo not drawn) [Example 118, 2-(3-(5-amino-6-(4-o-tolylpiperazin-1-yl)pyrazin-2-yl)-4-methylphenyl)-3,3,3-trifluoro-2-hydroxypropanamide trifluoroacetate] were less than 0.1 µM, 0.1 to 0.5 µM and 500 to 1000 nM.
As to `Cc1ccc(C(O)(C(N)=O)C(F)(F)F)cc1-c1cnc(N)c(N2CCN(c3ccc(C#N)cc3)CC2)n1` (stereo not drawn) [Example 123, 2-(3-(5-amino-6-(4-(4-cyanophenyl)piperazin-1-yl)pyrazin-2-yl)-4-methylphenyl)-3,3,3-trifluoro-2-hydroxypropanamide trifluoroacetate], the IC50 is less than 0.1 µM in assay [1] (setting [7]), less than 0.1 µM in assay [2] (setting [8]) and 100 to 500 nM in assay [3] (setting [9]).
For `Cc1ccc(C(O)(C(N)=O)C(F)(F)F)cc1-c1cnc(N)c(N2CC(=O)N(c3ccc(O)cc3)[C@@H](CO)C2)n1` (stereo partly drawn) [Example 124, 2-(3-(5-amino-6-((R)-3-(hydroxymethyl)-4-(4-hydroxyphenyl)-5-oxopiperazin-1-yl)pyrazin-2-yl)-4-methylphenyl)-3,3,3-trifluoro-2-hydroxypropanamide trifluoroacetate], the IC50 in assay [1] was less than 0.1 µM; in assay [2] (setting [8]), 0.1 to 0.5 µM; in assay [3] (setting [9]), 500 to 1000 nM.
Regarding `Cc1ccc(C(O)(C(N)=O)C(F)(F)F)cc1-c1cnc(N)c(N2CCN(CCC#N)CC2)n1` (stereo not drawn) [Example 125, 2-(3-(5-amino-6-(4-(2-cyanoethyl)piperazin-1-yl)pyrazin-2-yl)-4-methylphenyl)-3,3,3-trifluoro-2-hydroxypropanamide trifluoroacetate], the IC50 in assay [1] was less than 0.1 µM; in assay [2] it was less than 0.1 µM; in assay [3] (THP-1, read-out: PI3Kγ_THP1_RPS6_ELISA IC50 (nM)), 100 to 500 nM.
On to `CCOc1ccccc1N1CCN(c2nc(-c3cc(C(O)(C(N)=O)C(F)(F)F)ccc3C)cnc2N)CC1` (stereo not drawn) [Example 129, 2-(3-(5-amino-6-(4-(2-ethoxyphenyl)piperazin-1-yl)pyrazin-2-yl)-4-methylphenyl)-3,3,3-trifluoro-2-hydroxypropanamide trifluoroacetate], for which the half-inhibitory concentration (IC50) in assay [1] (setting [7]) was less than 0.1 µM; in assay [2] (setting [8]) it was 0.1 to 0.5 µM; in assay [3] (setting [9]) it was 500 to 1000 nM.
